Key:
GLP-1R = GLP-1R (UniProt P01275+P32301); test: BRET cAMP response assay in RINm5F cells, GLP-1R-mediated cAMP production; type: cell-based, rat; conditions: for effect on dose response curve / potency of GLP-1 (7-36) amide: lipids at concentrations indicated in FIG. 4C-E (ODA 72 uM); for effect on dose response curve of GLP-1 (7-36) amide: OA and LA at 106 and 107 uM, respectively; for effect on cAMP responses to 200 μM of GLP-1 (7-36) amide: 9 uM OEA or 8.4 uM 2-OG; for effect on dose-response curve for GLP-1 (7-36) amide to stimulate cAMP production: lipid at 9 to 8 uM; for effect on potency of Ex-4 to stimulate cAMP production: lipid up to 27 uM
Sequence of GLP-1R (P32301 22-463, one chain of several): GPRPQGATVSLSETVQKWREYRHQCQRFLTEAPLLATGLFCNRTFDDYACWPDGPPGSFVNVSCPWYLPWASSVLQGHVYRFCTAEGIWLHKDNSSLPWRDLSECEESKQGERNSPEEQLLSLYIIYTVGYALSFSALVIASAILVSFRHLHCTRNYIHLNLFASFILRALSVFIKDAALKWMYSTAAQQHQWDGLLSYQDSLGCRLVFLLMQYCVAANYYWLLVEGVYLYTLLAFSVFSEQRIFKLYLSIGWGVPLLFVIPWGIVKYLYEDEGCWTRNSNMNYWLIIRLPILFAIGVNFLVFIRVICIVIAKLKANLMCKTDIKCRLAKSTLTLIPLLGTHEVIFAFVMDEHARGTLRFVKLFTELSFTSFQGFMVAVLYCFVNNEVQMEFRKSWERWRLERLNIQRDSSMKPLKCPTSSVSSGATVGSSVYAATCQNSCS

GLP-1 (7-36) amide = molecular target: T1, GLP-1 (7-36) amide (Homo sapiens, UniProt P01275); test: Limited trypsin digestion of GLP-1 (7-36) amide, residual activity by cAMP response in RINm5F cells
T1 construct: purchased LifeTein

His-tagged GLP-1 (7-36) = molecular target: T2, His-tagged GLP-1 (7-36) (Homo sapiens, UniProt P01275); test: GLP-1 and OEA binding assay (3H-OEA, Cu-NTA resin capture)
T2 construct: purchased LifeTein
Procedure: Specific bound ^3H-OEA was obtained by subtracting the supernatant ^3H-OEA of reaction from supernatant ^3H-OEA of reaction without GLP-1. […] Copper-nitrilotriacetate resin (Cu^++-NTA), 3 uL in 30 uL of DPBS, was added to capture all the His-tagged GLP-1 (up to 60 uM in 80 uL reaction), further incubated with rotation at RT for 30 min. […] Bound ^3H-OEA=[supernatant ^3H-OEA of nonspecific binding]−[supernatant ^3H-OEA of total binding]. […] The bound ^3H-OEA and free ^3H-OEA were separated as described above, and specific binding was calculated; Bound ^3H-OEA=[supernatant ^3H-OEA of nonspecific binding reaction]−[supernatant ^3H-OEA in the total binding reaction]

receptors for GIP = molecular target: T3, receptors for GIP (Rattus norvegicus, UniProt P43219); test: BRET cAMP response assay in RINm5F cells, GIP receptor; type: cell-based; conditions: 5 uM antagonist (FIG. 3B)
T3 sequence (P43219 19-455): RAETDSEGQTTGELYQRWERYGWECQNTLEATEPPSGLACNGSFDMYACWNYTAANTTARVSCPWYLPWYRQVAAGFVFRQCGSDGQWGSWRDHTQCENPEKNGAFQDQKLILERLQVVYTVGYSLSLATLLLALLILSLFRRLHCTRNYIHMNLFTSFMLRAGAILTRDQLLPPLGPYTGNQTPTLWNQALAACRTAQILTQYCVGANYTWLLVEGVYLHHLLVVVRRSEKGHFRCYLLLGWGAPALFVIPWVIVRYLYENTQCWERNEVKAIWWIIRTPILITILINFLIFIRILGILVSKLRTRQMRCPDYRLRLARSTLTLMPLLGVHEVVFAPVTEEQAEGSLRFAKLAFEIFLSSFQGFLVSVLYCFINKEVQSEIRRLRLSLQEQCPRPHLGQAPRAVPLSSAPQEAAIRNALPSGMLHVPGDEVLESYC

[1] = molecular target: RG-cAMP sensor in RINm5F cells (Homo sapiens, UniProt O95398, F824A/R193G/T823A); test: BRET assay with RG-cAMP sensor, titration of membrane-permeable cAMP analog
GLP-1R-V2R membrane = molecular target: T4, GLP-1R-V2R membrane (Homo sapiens, UniProt P01275+P43220); test: Receptor binding assay, saturation binding of 125I-GLP-1(7-36)
T4 construct: the first 440 amino acids of the GLP-1R (Met1 to Thr440); expressed in transfected cells; host or cells: U2OS osteosarcoma cells stably co-expressing β-arrestin2:GFP; membrane preparation
T4 sequence (P43220 with tags, fused parts or gaps limits assumed, one chain of several): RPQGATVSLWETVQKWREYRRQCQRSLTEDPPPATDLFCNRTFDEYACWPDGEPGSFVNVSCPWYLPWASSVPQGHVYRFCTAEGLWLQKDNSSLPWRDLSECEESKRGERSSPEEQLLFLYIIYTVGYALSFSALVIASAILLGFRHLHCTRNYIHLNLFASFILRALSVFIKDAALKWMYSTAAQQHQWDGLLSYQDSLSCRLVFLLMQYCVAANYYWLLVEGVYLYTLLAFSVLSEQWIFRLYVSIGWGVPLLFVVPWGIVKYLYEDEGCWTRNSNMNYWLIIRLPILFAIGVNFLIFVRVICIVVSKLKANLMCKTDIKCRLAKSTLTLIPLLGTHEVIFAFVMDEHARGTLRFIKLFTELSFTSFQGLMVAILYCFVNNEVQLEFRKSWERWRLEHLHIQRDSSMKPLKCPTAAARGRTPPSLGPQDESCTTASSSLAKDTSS

adenylyl cyclase = test: BRET assay with RG-cAMP sensor, adenylyl cyclase activation by forskolin
receptors for glucagon = receptors for glucagon (Rattus norvegicus, UniProt P30082); test: BRET cAMP response assay in RINm5F cells, glucagon receptor; type: cell-based; conditions: 100 uM antagonist (FIG. 3C)
Sequence of receptors for glucagon (P30082 27-485): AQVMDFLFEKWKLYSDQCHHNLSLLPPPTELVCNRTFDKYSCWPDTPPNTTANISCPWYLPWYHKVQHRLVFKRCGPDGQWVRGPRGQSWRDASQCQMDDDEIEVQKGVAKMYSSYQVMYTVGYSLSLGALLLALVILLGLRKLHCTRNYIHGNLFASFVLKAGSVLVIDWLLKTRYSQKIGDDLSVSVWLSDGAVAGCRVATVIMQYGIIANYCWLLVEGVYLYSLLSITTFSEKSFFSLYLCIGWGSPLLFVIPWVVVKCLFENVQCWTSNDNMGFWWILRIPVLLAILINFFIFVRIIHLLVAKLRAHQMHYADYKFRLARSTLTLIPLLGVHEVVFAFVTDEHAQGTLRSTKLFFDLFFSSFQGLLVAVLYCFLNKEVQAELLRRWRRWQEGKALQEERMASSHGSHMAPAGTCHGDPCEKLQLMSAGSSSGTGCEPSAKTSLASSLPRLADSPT

trypsin = molecular target: T5, trypsin (Sus scrofa, UniProt P00761); test: In vitro assay of trypsin activity in the presence of OEA; type: biochemical; conditions: 92 uM OEA, 0.000125% trypsin
T5 construct: purchased Life Technologies (trypsin-EDTA, inferred); assay kit from BioVision
T5 sequence (P00761 9-231): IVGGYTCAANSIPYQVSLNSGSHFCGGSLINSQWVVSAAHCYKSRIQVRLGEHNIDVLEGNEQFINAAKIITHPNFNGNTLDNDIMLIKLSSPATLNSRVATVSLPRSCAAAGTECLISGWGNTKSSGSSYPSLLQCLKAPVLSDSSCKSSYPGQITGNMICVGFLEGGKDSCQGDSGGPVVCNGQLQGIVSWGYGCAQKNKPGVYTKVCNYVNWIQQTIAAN
Procedure: To determine whether OEA affects trypsin activity, we used the Trypsin Activity Colorimetric Test Kit (BioVision, Milpitas, Calif., USA). Briefly, 2 μL substrate was added to a well in 96-well plate containing 48 μL 0.000125% trypsin in the presence or absence of 92 uM OEA. Reactions were conducted at room temperature, and the extent of cleavage was monitored by real-time reading of optical density (OD) at 405 nm

RINm5F cells = test: BRET cAMP response assay, lipids present alone; type: cell-based, rat; conditions: 28 μM for 2-OG
GPR119 = molecular target: T6, GPR119 (Homo sapiens, UniProt Q8TDV5); conditions: literature (34); read-out: reported EC50 to activate GPR119; cited from earlier work
T6 sequence (Q8TDV5 1-335): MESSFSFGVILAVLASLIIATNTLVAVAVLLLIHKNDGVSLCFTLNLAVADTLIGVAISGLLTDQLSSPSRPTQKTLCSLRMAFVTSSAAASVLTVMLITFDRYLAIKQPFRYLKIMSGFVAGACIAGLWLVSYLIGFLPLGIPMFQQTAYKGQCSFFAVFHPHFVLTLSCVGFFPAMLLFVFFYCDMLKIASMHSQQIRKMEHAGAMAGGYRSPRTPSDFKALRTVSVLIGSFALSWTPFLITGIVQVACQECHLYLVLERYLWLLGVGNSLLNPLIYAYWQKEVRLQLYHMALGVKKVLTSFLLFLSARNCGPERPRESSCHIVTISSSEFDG

[2] = RINm5F cells stably expressing RG-cAMP sensor

CCCCC/C=C\C/C=C\C/C=C\CCCCC(=O)O [γ-LA, γ-linolenic acid]
effect on dose response curve / potency of GLP-1 (7-36) amide (GLP-1R): did not show such an effect

CCCCC/C=C\C/C=C\CCCCCCCC(=O)O [LA, linoleic acid]
effect on dose response curve of GLP-1 (7-36) amide (GLP-1R): consistently but mildly left-shifted

CCCCCCCCCCCCCCCCCC(=O)NCCO [SEA, stearoylethanolamide]
effect on trypsin digestion of GLP-1 (7-36) amide (GLP-1 (7-36) amide; 1 uM to 92 uM lipid, 0.00067% trypsin): did not affect trypsin digestion
effect on dose response curve / potency of GLP-1 (7-36) amide (GLP-1R): did not affect GLP-1 potency
effect on binding of 3H-OEA to His-tagged GLP-1(7-36) (His-tagged GLP-1 (7-36); competition assay): did not affect the binding

GIP(8-42): GIP antagonist, SEQ ID NO: 14 (SDYSIAMDKIHQQDFVNWLLAQKGKKNDWKHNITQ; GIP 8-42)
effect of antagonist on cAMP response to GIP (receptors for GIP): curtailed

COC1C2OP(=O)(OCOC(C)=O)OCC2OC1n1c(Br)nc2c(N)ncnc21 (stereo not shown) [8-Br-2-O-Me-cAMP-AM, 8-Br-2′-O-Me-cAMP-AM]
concentration at which half maximal reduction of BRET ratio is elicited (EC50) [1, 2]: 2.6 µM
BRET ratio reduction ([1]; concentration change from 0.2 μM to 50 μM): 0.45 unit

[3H]/C(CCCCCCCC)=C(\[3H])CCCCCCCC(=O)NCCO [^3H-OEA, Oleoyl [9,10-^3H]ethanolamide, reference compound]
specific binding to GLP-1 receptor (GLP-1R-V2R membrane): not able to observe detectable specific binding
concentration of 3H-OEA to achieve half-maximal binding (His-tagged GLP-1 (7-36); 0.1 uM His-tagged GLP-1 (7-36), estimated): 0.28 ± 0.07 µM

Cl.c1ccc(C2CCCC2NC2=NCCCCCCCCCCC2)cc1 (stereo not shown) [MDL-12,330A]
effect on forskolin-elicited BRET response (adenylyl cyclase; 250 μM inhibitor): eliminated

CCCCCCCCCCCCCCCCCC(=O)O [SA, stearic acid]
effect on dose response curve / potency of GLP-1 (7-36) amide (GLP-1R): did not show such an effect

CC/C=C\C/C=C\C/C=C\CCCCCCCC(=O)O [ALA, α-linolenic acid]
effect on dose response curve / potency of GLP-1 (7-36) amide (GLP-1R): did not show such an effect

[des-His1,Glu9]-glucagon amide: glucagon antagonist
effect of antagonist on cAMP response to glucagon (receptors for glucagon): curtailed

Ex-9: GLP-1 receptor antagonist exendin 9 [reference compound]
effect of antagonist on cAMP response to GLP-1 (7-36) amide (GLP-1R; 500 nM antagonist (FIG. 3A)): curtailed
lipid enhancement and cAMP responses with GLP-1 receptor signaling blocked (GLP-1R; 500 nM exendin 9, GLP-1 (7-36) amide with OEA or 2-OG): barely detectable

CCCCCCCC/C=C\CCCCCCCC(=O)NCCO [OEA, oleoylethanolamide]
effect on innate trypsin activity (trypsin): does not affect the innate trypsin activity
cAMP response to lipid present alone (RINm5F cells): did not elicit cAMP responses
factor of reduction of residual activity of GLP-1 (7-36) amide after trypsin digestion (GLP-1 (7-36) amide; 0.00067% trypsin, OEA increased from 1 uM to 92 uM): more than 40
factor of reduction of GLP-1 activity after trypsin cleavage (GLP-1 (7-36) amide; trypsin cleavage in the presence of 92 uM OEA): more than 300
Bmax of 125I-GLP-1 (GLP-1R-V2R membrane; in the presence of 9.2 uM OEA): 51±6.5 pmole/mg of membrane
effect on cAMP responses to 200 μM of GLP-1 (7-36) amide (GLP-1R): remarkably enhanced
effect on dose-response curve for GLP-1 (7-36) amide to stimulate cAMP production (GLP-1R): markedly left-shifted
effect on potency of Ex-4 to stimulate cAMP production (GLP-1R): unaltered
EC50 (GPR119): 2900 nM

CCCCCCCCCCCCCCCC(=O)NCCO [PEA, palmitoylethanolamide]
effect on dose response curve / potency of GLP-1 (7-36) amide (GLP-1R): did not affect GLP-1 potency

His-tagged GLP-1 (7-36): SEQ ID NO: 6, six consecutive histidine residues tagged to the C-terminal of GLP-1 (7-36) peptide (HAEGTFTSDVSSYLEGQAAKEFIAWLVKGRHHHHHH; His-tagged GLP-1 (7-36)) [reference compound]
concentration of GLP-1 to achieve half-maximal binding of OEA (His-tagged GLP-1 (7-36); 0.2 uM 3H-OEA, estimated): 0.16 ± 0.05 µM

CCCCCCCC/C=C\CCCCCCCC(=O)OC(CO)CO [2-OG, 2-oleoylglycerol]
cAMP response to lipid present alone (RINm5F cells): did not elicit cAMP responses
effect on cAMP responses to 200 μM of GLP-1 (7-36) amide (GLP-1R): remarkably enhanced
effect on dose-response curve for GLP-1 (7-36) amide to stimulate cAMP production (GLP-1R): markedly left-shifted
effect on potency of Ex-4 to stimulate cAMP production (GLP-1R): unaltered
Ki (His-tagged GLP-1 (7-36)): 100 ± 30 nM
EC50 (GPR119): 2900 nM

CCCCCCCC/C=C\CCCCCCCC(=O)NCCc1ccc(O)c(O)c1 [ODA, n-oleoyldopamine]
effect on dose response curve / potency of GLP-1 (7-36) amide (GLP-1R): did not affect GLP-1 potency

C=C[C@@]1(C)CC(=O)[C@]2(O)[C@@]3(C)[C@@H](O)CCC(C)(C)[C@@H]3[C@H](O)[C@H](OC(C)=O)[C@@]2(C)O1 [forskolin]
EC50 for reduction of BRET ratio (adenylyl cyclase; [2]): 70 nM
BRET ratio reduction, basal cAMP level to maximally stimulated (adenylyl cyclase; maximal forskolin stimulation): 0.3 unit

CCCCCCCC/C=C\CCCCCCCC(=O)O [OA, oleic acid]
effect on dose response curve of GLP-1 (7-36) amide (GLP-1R): consistently but mildly left-shifted

Source: patent US10408813B2, “Biosensor for detecting intracellular cyclic adenosine monophosphate (cAMP) and uses thereof” (Academia Sinica, priority 2015, dated 2019)
